# Reference: patent US20020016443A1, “Antiproliferative factor” (priority 1996, published 2002)
# Test system: APF activity on primary normal bladder epithelial cells
# Experiment: Blocking of APF antiproliferative activity by recombinant growth factors (^3H-thymidine incorporation)
# Assay type: cell-based, human
# Conditions: co-incubation with low molecular weight IC urine fractions; HB-EGF 10, 30 and 100 ng/ml; EGF, IGF1 up to about 12 and 25 fold normal levels
# Description: ^3H-Thymidine Incorporation. Primary normal adult human bladder epithelial cells (HBE) were grown from biopsies obtained at autopsy from patients who had no history of bladder disorder. HBE cells were plated at a density of 1×10^4 cells/well onto 96 well tissue culture plates and incubated at 37° C. overnight (resulting in approximately 60% confluence the following day). The medium was then changed to MEM containing only 1% glutamine and 1% antibiotic/ antimycotic solution, and the cells were incubated at 37° C. overnight. […] Cells were then trypsinized, and insoluble cell contents harvested and methanol-fixed onto glass fiber filter paper, as previously described^62; the amount of radioactivity incorporated was determined as counts per minute using a Beckman LS 3801 scintillation counter. […]
# To determine whether the antiproliferative effect of the APF on bladder epithelial cells might be due to a decrease in HB-EGF production, primary normal bladder epithelial cells were simultaneously incubated with varying levels of recombinant HB-EGF, EGF, or IGF1 and low molecular weight urine fractions from IC patients. […] This effect was evident using a concentration of HB-EGF (10 ng/ml) in the range previously determined for normal controls (2-22 ng/ml, mean 6.33 ng/ml) 12 as well as higher concentrations (30 and 100 ng/ml). […]
row,Substance,inhibition of IC urine antiproliferative activity by recombinant growth factor
1,insulin-like growth factor 1 [IGF1],insufficient to completely inhibit APF activity
2,epidermal growth factor [EGF],insufficient to completely inhibit APF activity
